{
  "source": "patent US20130274294A1",
  "about": "“4-(Hetero)Aryl-Ethynyl-Octahydro-Indole-1-Esters” (priority 2010, published 2013)",
  "key": {"human mGluR5a receptors": {"biological_target": "T1, human mGluR5a receptors (Homo sapiens, UniProt P41594)", "T1 construct": "expressed in transfected cells; host or cells: L(tk-) cells (mouse fibroblast line)", "T1 sequence (P41594 21-1180 isoform P41594-2 limits assumed)": "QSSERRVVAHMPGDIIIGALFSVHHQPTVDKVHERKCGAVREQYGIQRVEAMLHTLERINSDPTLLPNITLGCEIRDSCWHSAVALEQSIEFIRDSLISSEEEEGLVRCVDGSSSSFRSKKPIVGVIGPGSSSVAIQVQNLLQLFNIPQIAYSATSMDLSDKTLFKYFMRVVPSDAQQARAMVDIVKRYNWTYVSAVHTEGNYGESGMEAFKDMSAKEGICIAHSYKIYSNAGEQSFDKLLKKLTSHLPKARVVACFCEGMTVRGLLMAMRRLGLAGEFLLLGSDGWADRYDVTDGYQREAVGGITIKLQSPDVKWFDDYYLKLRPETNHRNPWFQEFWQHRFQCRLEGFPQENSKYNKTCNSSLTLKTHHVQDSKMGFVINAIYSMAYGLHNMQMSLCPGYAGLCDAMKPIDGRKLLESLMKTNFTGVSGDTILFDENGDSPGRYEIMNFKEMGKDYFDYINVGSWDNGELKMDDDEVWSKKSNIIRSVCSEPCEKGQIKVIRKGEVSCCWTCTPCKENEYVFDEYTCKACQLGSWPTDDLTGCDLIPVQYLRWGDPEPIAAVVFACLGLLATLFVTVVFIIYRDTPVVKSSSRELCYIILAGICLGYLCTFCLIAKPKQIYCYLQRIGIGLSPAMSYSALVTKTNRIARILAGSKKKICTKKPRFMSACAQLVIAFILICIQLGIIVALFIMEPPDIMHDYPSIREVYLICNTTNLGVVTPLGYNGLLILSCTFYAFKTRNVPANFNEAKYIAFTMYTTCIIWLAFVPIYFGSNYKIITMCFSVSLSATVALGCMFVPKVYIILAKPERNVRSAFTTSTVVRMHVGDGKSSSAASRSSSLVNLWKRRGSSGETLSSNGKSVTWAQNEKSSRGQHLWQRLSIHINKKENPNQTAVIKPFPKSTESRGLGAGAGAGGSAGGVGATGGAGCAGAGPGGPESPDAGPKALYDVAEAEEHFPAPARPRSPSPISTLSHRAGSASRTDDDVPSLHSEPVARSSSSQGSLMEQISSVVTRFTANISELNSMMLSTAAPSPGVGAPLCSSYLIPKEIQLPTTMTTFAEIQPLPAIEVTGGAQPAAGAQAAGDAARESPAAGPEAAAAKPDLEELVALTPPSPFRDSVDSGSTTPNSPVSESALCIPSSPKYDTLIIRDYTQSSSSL", "assay": "Inhibition of glutamate-induced elevation of intracellular calcium concentration in L(tk-) cells expressing human mGluR5a receptors", "assay_type": "cell-based", "settings": "agonist glutamate", "text": "This can be determined in vitro, for example, at recombinant human mGluR5, using different procedures like, for example, measurement of the inhibition of the agonist induced elevation of intracellular Ca^2+ concentration in accordance with L. P. Daggett et al., Neuropharm. Vol. 34, pages 871-886 (1995), P. J. Flor et al., J. Neurochem. Vol. 67, pages 58-63 (1996) or by determination to what extent the agonist induced elevation of the inositol phosphate turnover is inhibited as described by T. Knoepfel et al., Eur. J. Pharmacol. Vol. 288, pages 389-392 (1994), L. P. Daggett et al., Neuropharm. Vol. 67, pages 58-63 (1996) and references cited therein. Isolation and expression of human mGluR subtypes are described in U.S. Pat. No. 5,521,297.\nActivity of compounds of the present invention was examined by determination to what extent the glutamate-induced elevation of the intracellular calcium concentration in L(tk-) cells expressing human mGluR5a receptors (see L. P. Daggett et al., Neuropharm. Vol. 34, pages 871-886, 1995) is inhibited by utilizing methods as described e.g. by L. P. Daggett et al., Neuropharm. Vol. 34, pages 871-886 (1995) and P. J. Flor et al., J. Neurochem. Vol. 67, pages 58-63 (1996).\nThe table below represents IC50 values of the inhibition of the glutamate-induced elevation of the intracellular calcium concentration."}, "[1]": {"assay": "Solubility in Cl-free phosphate buffer (0.067 M), pH 6.8", "assay_type": "physicochemical", "settings": "pH 6.8, aqueous buffer", "protocol": "Solubility of compounds of the invention was determined in the following buffer: Cl-free phosphate buffer (0.067 M) is made from KH2PO4 solution and titrated to pH 6.8 with NaOH. The table below represents solubility values of compounds of the invention in the above buffer."}},
  "note": "pIC50: −log10 of the molar value.",
  "data": [
    {"molecule": "COC(=O)N1CC[C@@H]2[C@H]1CCC[C@@]2(O)C#Cc1ccnc(Cl)c1", "note": "[Example 5, (3aR,4S,7aR)-methyl 4-((2-chloropyridin-4-yl)ethynyl)-4-hydroxyoctahydro-1H-indole-1-carboxylate]", "values": [
      {"measurement": "pIC50", "setting": "human mGluR5a receptors", "result": 6.84},
      {"measurement": "solubility", "setting": "[1]", "result": 175, "unit": "µg/mL"}
    ]},
    {"molecule": "COC(=O)N1CC[C@@H]2[C@H]1CCC[C@@]2(O)C#Cc1cncc(C)c1", "note": "[Example 2, (3aR,4S,7aR)-methyl 4-hydroxy-4-((5-methylpyridin-3-yl)ethynyl)octahydro-1H-indole-1-carboxylate]", "values": [
      {"measurement": "pIC50", "setting": "human mGluR5a receptors", "result": 5.96},
      {"measurement": "solubility", "setting": "[1]", "result": "> 300", "unit": "µg/mL"}
    ]},
    {"molecule": "COC(=O)N1CC[C@@H]2[C@H]1CCC[C@@]2(O)C#Cc1csc(C)n1", "note": "[Example 7, (3aR,4S,7aR)-methyl 4-hydroxy-4-((2-methylthiazol-4-yl)ethynyl)octahydro-1H-indole-1-carboxylate]", "values": [
      {"measurement": "pIC50", "setting": "human mGluR5a receptors", "result": 6.33},
      {"measurement": "solubility", "setting": "[1]", "result": "> 300", "unit": "µg/mL"}
    ]},
    {"molecule": "COC(=O)N1CC[C@@H]2[C@H]1CCC[C@@]2(O)C#Cc1cc(C)ccn1", "note": "[Example 6, (3aR,4S,7aR)-methyl 4-hydroxy-4-((4-methylpyridin-2-yl)ethynyl)octahydro-1H-indole-1-carboxylate]", "values": [
      {"measurement": "pIC50", "setting": "human mGluR5a receptors", "result": 6.13},
      {"measurement": "solubility", "setting": "[1]", "result": 153, "unit": "µg/mL"}
    ]},
    {"molecule": "COC(=O)N1CC[C@@H]2[C@H]1CCC[C@@]2(O)C#Cc1ccnc(C)c1", "note": "[Example 3, (3aR,4S,7aR)-methyl 4-hydroxy-4-((2-methylpyridin-4-yl)ethynyl)octahydro-1H-indole-1-carboxylate]", "values": [
      {"measurement": "pIC50", "setting": "human mGluR5a receptors", "result": 6.28},
      {"measurement": "solubility", "setting": "[1]", "result": "> 300", "unit": "µg/mL"}
    ]},
    {"molecule": "COC(=O)N1CC[C@@H]2[C@H]1CCC[C@@]2(O)C#Cc1cccc(Cl)c1", "note": "[Example 1, (3aR,4S,7aR)-methyl 4-((3-chlorophenyl)ethynyl)-4-hydroxyoctahydro-1H-indole-1-carboxylate]", "values": [
      {"measurement": "pIC50", "setting": "human mGluR5a receptors", "result": 7.80},
      {"measurement": "solubility", "setting": "[1]", "result": 103, "unit": "µg/mL"}
    ]},
    {"molecule": "CCOC(=O)N1CC[C@@H]2[C@H]1CCC[C@@]2(N)C#Cc1cccc(C)c1", "note": "[Example 9, (3aR,4S,7aR)-ethyl 4-amino-4-(m-tolylethynyl)octahydro-1H-indole-1-carboxylate]", "values": [
      {"measurement": "pIC50", "setting": "human mGluR5a receptors", "result": 6.15},
      {"measurement": "solubility", "setting": "[1]", "result": "> 300", "unit": "µg/mL"}
    ]},
    {"molecule": "COC(=O)N1CC[C@@H]2[C@H]1CCC[C@@]2(N)C#Cc1cccc(C)c1", "note": "[Example 8, (3aR,4S,7aR)-methyl 4-amino-4-(m-tolylethynyl)octahydro-1H-indole-1-carboxylate]", "values": [
      {"measurement": "pIC50", "setting": "human mGluR5a receptors", "result": 6.48},
      {"measurement": "solubility", "setting": "[1]", "result": "> 300", "unit": "µg/mL"}
    ]},
    {"molecule": "COC(=O)N1CC[C@@H]2[C@H]1CCC[C@@]2(O)C#Cc1cccc(C)n1", "note": "[Example 4, (3aR,4S,7aR)-methyl 4-hydroxy-4-((6-methylpyridin-2-yl)ethynyl)octahydro-1H-indole-1-carboxylate]", "values": [
      {"measurement": "pIC50", "setting": "human mGluR5a receptors", "result": 5.84}
    ]}
  ]
}
